Measurements published in PMC10816276 (International Journal of Molecular Sciences, 2024).
In brackets after ≈: the same amount, converted by molar mass.

Legend:
[1] = target: T1, Mushroom tyrosinase (mTyr) (Agaricus bisporus, UniProt C7FF04); assay: HPLC analysis of oxidation of L-DOPA catalyzed by mTyr; type: biochemical; conditions: 2 μg·mL^−1 inhibitor, 0.5 mM L-DOPA, 31.25 U·mL^−1 mTyr, 30 °C, 0-30 min
T1 construct: purchased Sigma-Aldrich
Experimental: The inhibitory effect of 6′-O-caffeoylarbutin on the oxidation of L-DOPA catalyzed by mTyr was studied using Agilent 1200 series HPLC analysis (Palo Alto, CA, USA), with minor modifications to the previous procedure. The experiment was conducted with 0.5 mM L-DOPA as a diphenolase substrate for 31.25 U·mL^−1 mTyr in the absence of an inhibitor. Subsequently, 2 μg·mL^−1 of 6′-O-caffeoylarbutin was added, and the reaction mixture was incubated for 0, 15, and 30 min at 30 °C. Samples (10 μL) were injected after filtration onto the HPLC system equipped with a Capcell pak C18 column (250 × 4.6 mm, 5 μm, Shiseido, Tokyo, Japan) operating at a flow rate of 1.0 mL·min^−1. The column temperature maintained at 30 °C and the detection wavelength was set at 280 nm. The mobile phase was consisted of water (A) and methanol (B), and a gradient elution employed with the following linear gradient for solvent B: 5% (0 min), 20% (10 min), 50% (20 min), 80% (25 min), and 100% (35 min).

[2] = target: T1, Mushroom tyrosinase (mTyr); assay: mTyr inhibition kinetics (Lineweaver-Burk); type: biochemical
Experimental: The mTyr inhibition kinetics of 6′-O-caffeoylarbutin were studied using a method similar to the previously reported procedure for determining the inhibitory activity of 6′-O-caffeoylarbutin on mTyr.
I. Enzyme inhibition mechanism study. For the investigation of the enzyme inhibition mechanism, L-DOPA was used at a final concentration of 0.5 mmol·L^−1, and the mTyr was set at final concentrations of 8.1, 32.5, and 65.0 U·mL^−1. The rate of change of optical density (OD) at 490 nm was measured for various concentrations of 6′-O-caffeoylarbutin (ranging from 10 to 100 μM). A graph was plotted to depict the relationship between the rate of change of OD values and the mTyr concentration under the influence of different concentrations of 6′-O-caffeoylarbutin.
II. Enzyme inhibition type study. To determine the enzyme inhibition type, L-DOPA was used with final concentrations of 0.2, 0.5, 0.6, and 0.8 mmol·L^−1, while mTyr was used at a final concentration of 31.25 U·mL^−1. The rate of change of OD at 490 nm was measured for various concentrations of 6′-O-caffeoylarbutin (ranging from 0 to 100 μM). A reciprocal plot was generated using the rate of change of OD values and L-DOPA concentration. The inhibition constants were obtained based on the inhibition type of 6′-O-caffeoylarbutin on mTyr using quadratic plotting of the 6′-O-caffeoylarbutin concentration and the slope and vertical intercept of the line in the Lineweaver_Burk double reciprocal plot and Dixon plot.

[3] = target: T1, Mushroom tyrosinase (mTyr); conditions: substrate L-DOPA; previous experiments; Liu et al., 2023; read-out: IC50, diphenolase activity of mTyr; cited from earlier work
[4] = system: Human melanoma A375 tumor cells; assay: CCK-8 cell proliferation and cytotoxicity assay, A375; type: cell-based
Experimental: I. Cell lines and cell culture. Human melanoma A375 tumor cells and human immortalized keratinocyte (HaCaT) non-tumor cells were obtained from Nanjing Pusheng Biomedical Technology Co., Ltd. (Nanjing, China). The cells (A375/HaCaT) were cultured in Dulbecco’s modified Eagle’s medium (DMEM, Gibco, New York, NY, USA) supplemented with 10% (v/v) fetal bovine serum (FBS, Gibco, New York, NY, USA), and incubated at 37 °C with 5% CO2 in a humidified incubator.
II. Cell viability assay. Cell proliferation and cytotoxicity assays were conducted using the Cell counting kit-8 (CCK-8) on A375 and HaCaT cells. Briefly, the cells were initially seeded in 96-well plates at a density of 4 × 10^4 cells per well and incubated for 24 h at 37 °C with 5% CO2 in a humidified incubator. Each treatment was performed in six duplicate wells. The tested compounds were added at various concentrations, and the cells were then incubated for 72 h. Following the incubation period, CCK-8 solution (Dojindo Laboratories, Kumamoto, Japan) was added to each well, and the plates were further incubated for 2 h. The absorbance of each well at 450 nm was measured using an absorbance microplate reader (BioTek ELx800, Winooski, VT, USA). The assay included negative controls in which cells were treated with ultrapure water and positive controls in which cells were treated with 10 µg·mL^−1 taxol. The percentage of cell growth inhibition was calculated using the following Equation (3). (3) Cell growth inhibition rate [%]=B1−B2/B1−B3×100 where B1 represents the absorbance of a mixture containing cells, medium, and CCK-8 solution, B2 represents the absorbance of a mixture containing cells, medium, CCK-8 solution, and the test compound; and B3 represents a mixture containing medium and CCK-8 solution.

apple juice = assay: Browning inhibitory effect on apple juice; parameters: species or system Zhaotong Red Fuji apples; conditions: absorbance at 420 nm, compared to apple juice blank control
Experimental: To investigate the anti-browning effect of 6′-O-caffeoylarbutin, apple juice was used following a modified method based on the literature. Zhaotong Red Fuji apples were carefully chosen to ensure uniform shape, color, size, and maturity, free from any physical damage. After peeling, the apples were sliced into 10 g portions. These apple pieces were then immersed in solutions containing different concentrations of 6′-O-caffeoylarbutin for 10 min, followed by homogenization. The homogenized samples were subsequently subjected to centrifugation at 8000 rpm for 5 min at 4 °C, and the resulting supernatant (3 mL) was collected. Simultaneously, a blank control was prepared by extracting apple juice without the addition of any anti-browning agent. The absorbance of the samples at 420 nm was measured using a UV_vis spectrophotometer.

T1 sequence (C7FF04 1-392): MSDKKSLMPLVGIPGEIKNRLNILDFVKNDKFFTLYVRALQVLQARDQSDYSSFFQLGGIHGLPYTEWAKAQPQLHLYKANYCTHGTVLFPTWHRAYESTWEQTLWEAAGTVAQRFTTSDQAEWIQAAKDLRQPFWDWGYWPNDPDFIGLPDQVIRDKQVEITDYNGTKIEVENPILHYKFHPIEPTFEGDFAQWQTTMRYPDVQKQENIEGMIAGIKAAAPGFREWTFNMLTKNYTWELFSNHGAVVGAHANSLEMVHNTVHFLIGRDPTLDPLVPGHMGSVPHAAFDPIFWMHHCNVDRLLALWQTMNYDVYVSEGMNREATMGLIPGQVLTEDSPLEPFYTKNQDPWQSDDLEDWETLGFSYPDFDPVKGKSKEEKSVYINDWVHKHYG

O=C(C=Cc1ccc(O)c(O)c1)OCC1OC(Oc2ccc(O)cc2)C(O)C(O)C1O (stereo not shown) [6′-O-caffeoylarbutin]
oxidation products of L-DOPA (HPLC) [1]: significantly decrease | inhibition type on mTyr ([2]; Lineweaver-Burk, substrate L-DOPA): competitive inhibition | Ki ([2]; binding to free enzyme, substrate L-DOPA, read-out: inhibition constant (Ki) on mTyr): 1.34 ± 0.92 µM | reversibility of mTyr inhibition ([2]; rate vs enzyme concentration, 10-100 μM inhibitor, L-DOPA 0.5 mmol·L^−1): reversible | IC50 [3]: 95.2 µM | inhibition rate ([4]; 3.125–100 μg∙mL^−1, 72 h): below 5% | inhibition at 200 µg/mL ([4]; Homo sapiens, A-375, 200 μg∙mL^−1, 72 h, read-out: inhibition rate): 20% | inhibition at 400 µg/mL ([4]; Homo sapiens, A-375, 400 μg∙mL^−1, 72 h, read-out: inhibition rate): 67.8% | IC50 ([4]; Homo sapiens, A-375, 72 h, CCK-8): 313 µg/mL (≈ 721 µM) | formation of browning compounds in apple juice (apple juice): significant reduction in the formation of browning compounds in a dose-dependent manner
